Test results reported in US20130303509A1, “NAMPT INHIBITORS” (AbbVie Inc., priority 2012, published 2013).

These molecules were tested on PC3 cells (assay: NAMPT Cell Proliferation Assay). Settings: Homo sapiens, PC-3, 120 h, 5 days incubation, cell viability by Cell Titer Glo.
Type: cell-based
Summary of the method: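 Seeded at 500 cells/well in RPMI with 10% heat-inactivated FBS and left to attach overnight at 37° C, 5% CO2. Compounds were added as 10-fold dilutions […] for 5 days, then viability was read by CellTiter-Glo. IC50s came from sigmoidal fits of percent inhibition.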

SMILES | IC50
CC(C)(C)c1ccc(C(=O)N2CCC(S(=O)(=O)c3ccc(NC(=O)C4CN(c5cccnn5)C4)cc3)CC2)cc1 [Example 565, N-(4-{[1-(4-tert-butylbenzoyl)piperidin-4-yl]sulfonyl}phenyl)-1-(pyridazin-3-yl)azetidine-3-carboxamide] | 0.0741 µM
CC[C@H](C(=O)N1CCC(c2ccc(NC(=O)C3CN(c4cccnn4)C3)cc2)CC1)c1ccccc1 [Example 399, N-(4-{1-[(2S)-2-phenylbutanoyl]piperidin-4-yl}phenyl)-1-(pyridazin-3-yl)azetidine-3-carboxamide] | 0.00635 µM
CC(C)(O)C(=O)N1CCC(c2ccc(NC(=O)C3CN(c4cnccc4C#N)C3)cc2)CC1 [Example 97, 1-(4-cyanopyridin-3-yl)-N-{4-[1-(2-hydroxy-2-methylpropanoyl)piperidin-4-yl]phenyl}azetidine-3-carboxamide] | 0.922 µM
N#Cc1cncc(N2CC(C(=O)Nc3ccc(C4CCN(C(=O)c5ccccc5)CC4)cc3)C2)c1 [Example 740, N-[4-(1-benzoylpiperidin-4-yl)phenyl]-1-(5-cyanopyridin-3-yl)azetidine-3-carboxamide] | 0.914 µM
CC(C)(C)C(=O)N1CCC(Oc2ccc(NC(=O)C3CN(c4cccnc4)C3)cc2)CC1 [Example 42, N-(4-{[1-(2,2-dimethylpropanoyl)piperidin-4-yl]oxy}phenyl)-1-(pyridin-3-yl)azetidine-3-carboxamide] | 0.0646 µM
CC(C)Cn1cc(-c2ccc(C(=O)N[C@@H]3CCN(c4cnnc(Cl)c4Cl)C3)s2)cn1 [Example 618, N-[(3R)-1-(5,6-dichloropyridazin-4-yl)pyrrolidin-3-yl]-5-[1-(2-methylpropyl)-1H-pyrazol-4-yl]thiophene-2-carboxamide] | > 10 µM
O=C(NC1CN(c2cccnn2)C1)c1ccc(C2CCN(C(=O)CC(F)(F)F)CC2)s1 [Example 849, N-[1-(pyridazin-3-yl)azetidin-3-yl]-5-[1-(3,3,3-trifluoropropanoyl)piperidin-4-yl]thiophene-2-carboxamide] | 0.685 µM
N#Cc1cccc(C(=O)N2CCC(c3ccc(NC(=O)C4CN(c5cccnn5)C4)cc3)CC2)c1 [Example 352, N-{4-[1-(3-cyanobenzoyl)piperidin-4-yl]phenyl}-1-(pyridazin-3-yl)azetidine-3-carboxamide] | 0.00888 µM
CC(C)Cn1cc(-c2ccc(C(=O)N[C@@H]3CCN(c4cccnc4)C3)s2)cn1 [Example 603, 5-[1-(2-methylpropyl)-1H-pyrazol-4-yl]-N-[(3R)-1-(pyridin-3-yl)pyrrolidin-3-yl]thiophene-2-carboxamide] | 0.576 µM
COc1ccccc1C(=O)N1CCC(S(=O)(=O)c2ccc(NC(=O)C3CN(c4cccnn4)C3)cc2)CC1 [Example 570, N-(4-{[1-(2-methoxybenzoyl)piperidin-4-yl]sulfonyl}phenyl)-1-(pyridazin-3-yl)azetidine-3-carboxamide] | 0.631 µM
O=C(Nc1ccc(-c2cnn(CC3CCCCO3)c2)cc1)[C@H]1CCN(c2cccnn2)C1 (stereo partly drawn) [Example 772, (3S)-1-(pyridazin-3-yl)-N-{4-[1-(tetrahydro-2H-pyran-2-ylmethyl)-1H-pyrazol-4-yl]phenyl}pyrrolidine-3-carboxamide] | 0.0636 µM
O=C(Nc1ccc(OC2CCN(C(=O)C3CCOC3)CC2)cc1)C1CN(c2cccnn2)C1 (centres unmarked) [Example 226, 1-(pyridazin-3-yl)-N-(4-{[1-(tetrahydrofuran-3-ylcarbonyl)piperidin-4-yl]oxy}phenyl)azetidine-3-carboxamide] | 0.00889 µM
O=C(Nc1ccc(S(=O)(=O)C2CCN(C(=O)c3ccc(Cl)cc3)CC2)cc1)C1CN(c2cccnn2)C1 [Example 573, N-(4-{[1-(4-chlorobenzoyl)piperidin-4-yl]sulfonyl}phenyl)-1-(pyridazin-3-yl)azetidine-3-carboxamide] | 0.0819 µM
Cc1ncccc1N1CC(C(=O)Nc2ccc(C3CCN(C(=O)c4ccsc4)CC3)cc2)C1 [Example 169, 1-(2-methylpyridin-3-yl)-N-{4-[1-(thiophen-3-ylcarbonyl)piperidin-4-yl]phenyl}azetidine-3-carboxamide] | 0.0654 µM

Other lines, results leading:

IC50 | SMILES
0.0689 µM | O=C(Nc1ccc(O[C@@H]2CCN(C(=O)CC(F)(F)F)C2)cc1)C1CN(c2ccnnc2)C1 [Example 479, 1-(pyridazin-4-yl)-N-(4-{[(3R)-1-(3,3,3-trifluoropropanoyl)pyrrolidin-3-yl]oxy}phenyl)azetidine-3-carboxamide]
0.00958 µM | Cc1ccc(C(=O)N2CCC(c3ccc(NC(=O)[C@H]4CCN(c5cccnn5)C4)cc3)CC2)cc1 [Example 631, (3S)-N-{4-[1-(4-methylbenzoyl)piperidin-4-yl]phenyl}-1-(pyridazin-3-yl)pyrrolidine-3-carboxamide]
0.0137 µM | O=C(Nc1ccc(C2CCN(C(=O)C3CCCO3)CC2)cc1)C1CN(c2ccnnc2)C1 (centres unmarked) [Example 538, 1-(pyridazin-4-yl)-N-{4-[1-(tetrahydrofuran-2-ylcarbonyl)piperidin-4-yl]phenyl}azetidine-3-carboxamide]
0.00229 µM | O=C(Nc1ccc(C2CCN(C(=O)c3ccccc3F)CC2)cc1F)C1CN(c2ccnnc2)C1 [Example 868, N-{2-fluoro-4-[1-(2-fluorobenzoyl)piperidin-4-yl]phenyl}-1-(pyridazin-4-yl)azetidine-3-carboxamide]
0.00573 µM | O=C(Nc1ccc(C2CCN(C(=O)CCS(=O)(=O)c3ccccc3)CC2)cc1)[C@H]1CCN(c2cccnn2)C1 [Example 647, (3S)-N-(4-{1-[3-(phenylsulfonyl)propanoyl]piperidin-4-yl}phenyl)-1-(pyridazin-3-yl)pyrrolidine-3-carboxamide]
0.207 µM | O=C(Nc1ccc(S(=O)(=O)C2CCN(C(=O)CC3CC3)CC2)cc1)C1CN(c2cccnn2)C1 [Example 569, N-(4-{[1-(cyclopropylacetyl)piperidin-4-yl]sulfonyl}phenyl)-1-(pyridazin-3-yl)azetidine-3-carboxamide]
0.00281 µM | CCC(C)CC(=O)N1CCC(c2ccc(NC(=O)C3CN(c4cccnn4)C3)cc2)CC1 (centres unmarked) [Example 323, N-{4-[1-(3-methylpentanoyl)piperidin-4-yl]phenyl}-1-(pyridazin-3-yl)azetidine-3-carboxamide]
0.00823 µM | O=C(Nc1ccc(C2CCN(C(=O)CC3CCCC3)CC2)cc1)[C@H]1CCN(c2cccnn2)C1 [Example 644, (3S)-N-{4-[1-(cyclopentylacetyl)piperidin-4-yl]phenyl}-1-(pyridazin-3-yl)pyrrolidine-3-carboxamide]
0.0725 µM | O=C(Nc1ccc(OC2CCN(C(=O)c3nccs3)CC2)cc1)C1CN(c2ccnnc2)C1 [Example 283, 1-(pyridazin-4-yl)-N-(4-{[1-(1,3-thiazol-2-ylcarbonyl)piperidin-4-yl]oxy}phenyl)azetidine-3-carboxamide]
0.00999 µM | C#CCCC(=O)N1CCC(c2ccc(NC(=O)[C@H]3CCN(c4cccnn4)C3)cc2)CC1 [Example 713, (3S)-N-{4-[1-(pent-4-ynoyl)piperidin-4-yl]phenyl}-1-(pyridazin-3-yl)pyrrolidine-3-carboxamide]
0.0216 µM | O=C(Nc1ccc(C2CCN(C(=O)C3CCCO3)CC2)cc1)[C@H]1CCN(c2cccnn2)C1 (stereo partly drawn) [Example 661, (3S)-1-(pyridazin-3-yl)-N-{4-[1-(tetrahydrofuran-2-ylcarbonyl)piperidin-4-yl]phenyl}pyrrolidine-3-carboxamide]
0.00697 µM | Cc1cccc(C(=O)N2CCC(c3ccc(NC(=O)[C@H]4CCN(c5cccnn5)C4)cc3)CC2)c1C [Example 728, (3S)-N-{4-[1-(2,3-dimethylbenzoyl)piperidin-4-yl]phenyl}-1-(pyridazin-3-yl)pyrrolidine-3-carboxamide]
0.00026 µM | Cc1ccc(C(=O)N2CCC(c3ccc(NC(=O)C4CN(c5cccnc5)C4)cc3)CC2)s1 [Example 126, N-(4-{1-[(5-methylthiophen-2-yl)carbonyl]piperidin-4-yl}phenyl)-1-(pyridin-3-yl)azetidine-3-carboxamide]
0.00018 µM | CC(C)C(C)C(=O)N1CCC(c2ccc(NC(=O)C3CN(c4cccnc4)C3)cc2)CC1 (centres unmarked) [Example 139, N-{4-[1-(2,3-dimethylbutanoyl)piperidin-4-yl]phenyl}-1-(pyridin-3-yl)azetidine-3-carboxamide]
0.00694 µM | CSCCC(=O)N1CCC(c2ccc(NC(=O)C3CN(c4cccnn4)C3)cc2)CC1 [Example 337, N-(4-{1-[3-(methylsulfanyl)propanoyl]piperidin-4-yl}phenyl)-1-(pyridazin-3-yl)azetidine-3-carboxamide]
0.00023 µM | CC(C)(C)CC(=O)N1CCC(c2ccc(NC(=O)C3CN(c4cccnc4)C3)cc2)CC1 [Example 132, N-{4-[1-(3,3-dimethylbutanoyl)piperidin-4-yl]phenyl}-1-(pyridin-3-yl)azetidine-3-carboxamide]
0.112 µM | Cc1ncccc1N1CC(C(=O)Nc2ccc(OC3CCN(C(=O)CC4CCOCC4)CC3)cc2)C1 [Example 4, 1-(2-methylpyridin-3-yl)-N-(4-{[1-(tetrahydro-2H-pyran-4-ylacetyl)piperidin-4-yl]oxy}phenyl)azetidine-3-carboxamide]
0.741 µM | O=C(Nc1ccc(C2CCN(C(=O)CC3CCCC3)CC2)cc1)[C@H]1CCN(c2ccnnc2)C1 [Example 142, (3S)—N-{4-[1-(cyclopentylacetyl)piperidin-4-yl]phenyl}-1-(pyridazin-4-yl)pyrrolidine-3-carboxamide]
0.00066 µM | O=C(Nc1ccc(C2CCN(C(=O)c3ccsc3)CC2)cc1)C1CN(c2cccnc2)C1 [Example 109, 1-(pyridin-3-yl)-N-{4-[1-(thiophen-3-ylcarbonyl)piperidin-4-yl]phenyl}azetidine-3-carboxamide]
0.00423 µM | O=C(Nc1ccc(C2CCN(C(=O)c3ccc(F)cc3F)CC2)cc1)[C@H]1CCN(c2cccnn2)C1 [Example 692, (3S)-N-{4-[1-(2,4-difluorobenzoyl)piperidin-4-yl]phenyl}-1-(pyridazin-3-yl)pyrrolidine-3-carboxamide]
0.00336 µM | O=C(Nc1ccc(C2CCN(C(=O)C3CCCC3)CC2)cc1)C1CN(c2cccnn2)C1 [Example 439, N-{4-[1-(cyclopentylcarbonyl)piperidin-4-yl]phenyl}-1-(pyridazin-3-yl)azetidine-3-carboxamide]
